Laboratory results published in ChEMBL document CHEMBL5120844, “Discovery of novel non-steroidal selective glucocorticoid receptor modulators by structure- and IGN-based virtual screening, structural optimization, and biological evaluation” (Eur J Med Chem, 2022).
Blank lines part the entries; values can stand above or below the compound they belong to. Activity calls are given as the source filed them. The calls are words filed in the database; no cut-off is given here.

Key:
[1] = test system: MG-63; experiment: Induction of osteoporosis in human MG-63 cells assessed as decrease in OPG mRNA expression level at 10 uM by qRT-PCR analysis; assay type: functional, cell-based
[2] = test system: MG-63; experiment: Induction of osteoporosis in human MG-63 cells assessed as decrease in RANKL mRNA expression level at 10 uM by qRT-PCR analysis; assay type: functional, cell-based
[3] = test system: HeLa; experiment: Inhibition of NF-kappaB transcriptional activity in human HeLa cells transfected with NF-kappaB-Luc at 10 uM by dual-luciferase reporter gene assay relative to control; assay type: cell-based
[4] = Inhibition of NF-kappaB transcriptional activity in human HeLa cells transfected with NF-kappaB-Luc by dual-luciferase reporter gene assay; assay type: cell-based
[5] = test system: NIH3T3; experiment: Cytotoxicity against mouse 3T3 cells assessed as reduction in cell viability after 24 hrs by MTT assay; assay type: toxicity, cell-based; settings: nih3t3, 24 h
[6] = test system: RAW264.7; experiment: Anti-inflammatory activity against mouse RAW264.7 cells assessed as reduction in LPS-induced IL-1beta mRNA expression level preincubated for 1 hr followed by LPS addition and measured after 16 hrs by qRT-PCR analysis; assay type: functional, cell-based; settings: time 17.0 hrs
[7] = test system: RAW264.7; experiment: Anti-inflammatory activity against mouse RAW264.7 cells assessed as reduction in LPS-induced IL-6 mRNA expression level preincubated for 1 hr followed by LPS addition and measured after 16 hrs by qRT-PCR analysis; assay type: functional, cell-based; settings: time 17.0 hrs
[8] = test system: RAW264.7; experiment: Anti-inflammatory activity against mouse RAW264.7 cells assessed as reduction in LPS-induced COX-2 mRNA expression level preincubated for 1 hr followed by LPS addition and measured after 16 hrs by qRT-PCR analysis; assay type: functional, cell-based; settings: time 17.0 hrs
[9] = test system: RAW264.7; experiment: Anti-inflammatory activity against mouse RAW264.7 cells assessed as inhibition of LPS-induced NO production at 25 uM incubated for 16 hrs by Greiss reagent assay; assay type: functional, cell-based
[10] = test system: A549; experiment: Anti-inflammatory activity against human A549 cells assessed as reduction in TNFalpha induced IL-1beta mRNA expression level by qRT-PCR analysis; assay type: functional, cell-based
[11] = target: T1, Progesterone receptor (Homo sapiens) (UniProt P06401); experiment: Agonist activity at progesterone receptor (unknown origin) expressed in PC3 cells co-transfected with ARR3tk-luciferase/Renilla at 10 to 25 uM incubated for 16 hrs by luciferase reporter gene assay; assay type: cell-based; settings: PC-3, filed as agonist, dose 10-25 µM
T1 sequence (whole entry): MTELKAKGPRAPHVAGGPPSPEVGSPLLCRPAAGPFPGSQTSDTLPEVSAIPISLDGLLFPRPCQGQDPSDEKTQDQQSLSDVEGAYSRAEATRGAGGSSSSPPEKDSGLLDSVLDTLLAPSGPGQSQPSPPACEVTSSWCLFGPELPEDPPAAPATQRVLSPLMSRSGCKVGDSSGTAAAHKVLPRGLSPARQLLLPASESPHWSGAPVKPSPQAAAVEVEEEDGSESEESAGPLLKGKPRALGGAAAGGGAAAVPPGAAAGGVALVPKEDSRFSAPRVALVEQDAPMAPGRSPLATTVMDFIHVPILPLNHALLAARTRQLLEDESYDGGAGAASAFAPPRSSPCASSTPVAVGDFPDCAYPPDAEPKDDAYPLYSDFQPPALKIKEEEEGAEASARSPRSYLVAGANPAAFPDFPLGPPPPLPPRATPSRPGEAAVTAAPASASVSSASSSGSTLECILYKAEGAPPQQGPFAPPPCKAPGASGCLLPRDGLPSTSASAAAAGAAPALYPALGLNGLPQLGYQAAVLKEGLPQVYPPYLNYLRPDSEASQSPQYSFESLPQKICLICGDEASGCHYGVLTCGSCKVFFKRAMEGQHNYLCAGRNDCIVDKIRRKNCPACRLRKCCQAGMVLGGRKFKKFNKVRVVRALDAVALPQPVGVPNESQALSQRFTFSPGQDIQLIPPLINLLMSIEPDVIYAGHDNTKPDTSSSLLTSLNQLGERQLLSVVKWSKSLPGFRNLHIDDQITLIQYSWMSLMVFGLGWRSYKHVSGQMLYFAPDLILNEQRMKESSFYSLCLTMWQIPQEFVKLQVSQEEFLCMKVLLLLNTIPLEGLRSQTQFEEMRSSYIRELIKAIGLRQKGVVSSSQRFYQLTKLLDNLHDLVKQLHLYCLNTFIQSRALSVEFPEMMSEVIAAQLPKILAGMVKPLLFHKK

[12] = target: T2, Mineralocorticoid receptor (Homo sapiens) (UniProt P08235); experiment: Agonist activity at mineralocorticoid receptor (unknown origin) expressed in HEK293T cells co-transfected with pGL4.36[luc2P MMTV Hygro]/Renilla at 10 to 25 uM incubated for 16 hrs by luciferase reporter gene assay; assay type: cell-based; settings: filed as agonist, dose 10-25 µM
T2 sequence (whole entry): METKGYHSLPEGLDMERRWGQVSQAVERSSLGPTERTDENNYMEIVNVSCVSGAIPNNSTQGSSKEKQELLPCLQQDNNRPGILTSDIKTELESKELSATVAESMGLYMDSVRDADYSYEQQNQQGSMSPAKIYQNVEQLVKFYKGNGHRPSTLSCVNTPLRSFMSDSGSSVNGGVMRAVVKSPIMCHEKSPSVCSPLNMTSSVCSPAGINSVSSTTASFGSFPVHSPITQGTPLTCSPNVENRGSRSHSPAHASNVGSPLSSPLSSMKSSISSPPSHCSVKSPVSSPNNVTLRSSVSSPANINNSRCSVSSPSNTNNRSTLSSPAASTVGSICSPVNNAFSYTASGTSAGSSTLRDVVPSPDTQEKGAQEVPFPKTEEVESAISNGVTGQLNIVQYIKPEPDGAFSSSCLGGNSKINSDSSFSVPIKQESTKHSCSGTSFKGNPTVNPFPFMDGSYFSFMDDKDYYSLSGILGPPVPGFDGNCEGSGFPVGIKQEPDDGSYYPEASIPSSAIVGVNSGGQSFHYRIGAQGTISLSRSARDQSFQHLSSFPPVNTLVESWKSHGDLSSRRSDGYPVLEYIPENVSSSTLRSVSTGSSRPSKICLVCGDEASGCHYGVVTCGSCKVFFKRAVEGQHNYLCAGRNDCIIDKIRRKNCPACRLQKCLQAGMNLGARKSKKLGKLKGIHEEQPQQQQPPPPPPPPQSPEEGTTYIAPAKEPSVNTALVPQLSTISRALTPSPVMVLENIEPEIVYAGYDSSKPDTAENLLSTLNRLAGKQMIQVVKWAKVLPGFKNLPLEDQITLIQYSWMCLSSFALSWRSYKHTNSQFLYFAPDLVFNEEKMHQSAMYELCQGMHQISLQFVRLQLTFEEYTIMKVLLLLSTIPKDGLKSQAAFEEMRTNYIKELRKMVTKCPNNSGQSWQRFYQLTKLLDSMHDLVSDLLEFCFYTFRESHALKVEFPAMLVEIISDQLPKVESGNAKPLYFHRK

[13] = test system: RAW264.7; experiment: Anti-inflammatory activity against mouse RAW264.7 cells assessed as reduction in LPS-induced […] mRNA expression level preincubated for 1 hr followed by LPS addition and measured after 16 hrs by qRT-PCR analysis; assay type: functional, cell-based; settings: time 17.0 hrs
[14] = test system: RAW264.7; experiment: Cytotoxicity against mouse RAW264.7 cells assessed as reduction in cell viability at 25 uM incubated for 48 hrs by MTT assay; assay type: toxicity, cell-based; settings: raw264.7, 48 h
[15] = target: T3, Glucocorticoid receptor (Homo sapiens) (UniProt P04150); experiment: Binding affinity to recombinant human GST-tagged glucocorticoid receptor ligand binding domain at 10 uM by TR-FRET assay relative to control; settings: filed as modulator
T3 sequence (whole entry): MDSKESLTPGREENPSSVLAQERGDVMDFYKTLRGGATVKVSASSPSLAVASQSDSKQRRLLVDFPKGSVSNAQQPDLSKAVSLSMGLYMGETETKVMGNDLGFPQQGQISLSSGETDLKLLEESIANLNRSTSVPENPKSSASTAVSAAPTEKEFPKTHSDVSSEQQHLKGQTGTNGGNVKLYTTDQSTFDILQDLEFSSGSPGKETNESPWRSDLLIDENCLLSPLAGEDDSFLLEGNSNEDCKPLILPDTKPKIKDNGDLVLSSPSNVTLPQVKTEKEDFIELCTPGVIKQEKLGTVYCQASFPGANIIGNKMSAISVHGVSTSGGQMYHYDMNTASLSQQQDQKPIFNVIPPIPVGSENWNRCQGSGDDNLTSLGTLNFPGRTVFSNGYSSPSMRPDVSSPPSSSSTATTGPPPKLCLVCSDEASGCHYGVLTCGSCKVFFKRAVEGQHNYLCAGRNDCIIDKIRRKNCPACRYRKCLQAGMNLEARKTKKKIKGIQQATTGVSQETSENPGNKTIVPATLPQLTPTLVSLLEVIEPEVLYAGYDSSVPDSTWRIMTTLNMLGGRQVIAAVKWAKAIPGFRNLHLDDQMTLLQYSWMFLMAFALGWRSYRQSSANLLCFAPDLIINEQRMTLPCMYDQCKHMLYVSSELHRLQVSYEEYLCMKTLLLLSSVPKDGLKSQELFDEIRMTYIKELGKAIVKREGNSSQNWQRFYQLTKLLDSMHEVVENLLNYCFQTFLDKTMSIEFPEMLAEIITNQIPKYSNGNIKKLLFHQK

[16] = target: T3, Glucocorticoid receptor (Homo sapiens); experiment: (§1) Binding affinity to recombinant human GST-tagged glucocorticoid receptor ligand binding domain by TR-FRET assay relative to control; settings: filed as modulator, DDE = dose-dependent effect
[17] = target: T4, Glucocorticoid receptor (Homo sapiens, UniProt P04150); experiment: as §1
T4 sequence (P04150 whole entry): T3 sequence (whole entry)

Compound: CC(C)[C@H](NC(=O)C(C)(F)F)[C@H](Oc1ccc2c(cnn2-c2ccc(=O)n(C)c2)c1)c1ccccc1
Activity [1]: Toxic | Activity [2]: Non-Toxic

Compound: CC(NC(=O)c1ccc(CN2CCc3ccccc3C2)cc1)c1ccccc1 (configuration not stated)
inhibition [3]: 49.1%

Compound: C[C@@H](NC(=O)c1ccc(Cn2c(=S)[nH]c3ccsc3c2=O)cc1)c1ccccc1
IC50 [4]: 3.8 µM | Activity [5]: Non-Toxic | Activity [6]: Active | Activity [7]: Active | Activity [8]: Active

Compound: CC(NC(=O)c1ccc(CN2CC(=O)N3CSC[C@@H]3C2=O)cc1)c1ccccc1 (some centres not stated)
inhibition [3]: 34.1%

Compound: Cn1c(=O)n(C)c2cc(NC(=O)c3ccc(CN4CCc5ccccc5C4)cc3)ccc21
inhibition [3]: 10.6%

Compound: Cc1ccc(S(=O)(=O)NCc2ccc(C(=O)NC(C)c3ccccc3)cc2)cc1 (configuration not stated)
inhibition [3]: 51.3%

Compound: O=C(c1ccc(Cn2c(=S)[nH]c3ccc(Br)cc3c2=O)cc1)N1CCN(c2cccc(Cl)c2)CC1
inhibition [3]: 54.1%

Compound: O=C(c1ccc2c(=O)n(Cc3ccc(Cl)cc3)c(=S)[nH]c2c1)N(CCO)Cc1ccccc1
inhibition [3]: 75.8%

Compound: C[C@H](NC(=O)c1ccc(Cn2c(=S)[nH]c3ccsc3c2=O)cc1)c1ccccc1
IC50 [4]: 1.92 µM | Activity [5]: Non-Toxic | Activity [6]: Active | Activity [7]: Active | Activity [8]: Active

Compound: O=C(NCc1cccnc1)c1ccc(Cn2c(=S)[nH]c3ccsc3c2=O)cc1
inhibition [3]: 76%

Continued, in another order:

Activity [11]: Active | Activity [12]: Active
Compound: C[C@@H]1C[C@H]2[C@@H]3CCC4=CC(=O)C=C[C@]4(C)[C@@]3(F)[C@@H](O)C[C@]2(C)[C@@]1(O)C(=O)CO
inhibition [9]: Active | Activity [10]: Active | Activity [1]: Toxic | Activity [2]: Non-Toxic | Activity [6]: Active | Activity [13]: Active

IC50 [4]: 7.38 µM
Compound: COc1ccc(CNC(=O)c2ccc(Cn3c(=S)[nH]c4ccsc4c3=O)cc2)cc1
inhibition [3]: 93.1%

IC50 [4]: 5.14 µM
Compound: CC(NC(=O)c1ccc(Cn2c(=S)[nH]c3ccsc3c2=O)cc1)c1ccc2c(c1)OCO2 (configuration not stated)
inhibition [3]: 94.6%

IC50 [4]: 6.61 µM
Compound: O=C(Nc1ccccc1C(=O)NCc1cccnc1)c1ccc(CN2CCc3ccccc3C2)cc1
inhibition [3]: 89%

IC50 [4]: 1.07 µM
Compound: COc1ccccc1Nc1nc(C(=O)N(CC(=O)NC2CC2)Cc2ccccc2)cs1
inhibition [3]: 99.9%

Activity [15]: < 60% | Activity [16]: Dde | IC50 [17]: 2.05 µM | IC50 [4]: 2.32 µM
Compound: CC(NC(=O)c1ccc(Cn2c(=S)[nH]c3ccsc3c2=O)cc1)c1ccccc1 (configuration not stated)
inhibition [9]: Active | Activity [14]: Non-Toxic | inhibition [3]: 86.9% | Activity [10]: Active | Activity [1]: Toxic | Activity [2]: Non-Toxic | Activity [6]: Active | Activity [7]: Active | Activity [8]: Active

IC50 [4]: 18.3 µM
Compound: CC(NC(=O)c1ccc(/C=C2/Sc3ccccc3NC2=O)cc1)c1ccc2c(c1)OCCO2 (configuration not stated)
inhibition [3]: 67%

IC50 [4]: 0.99 µM
Compound: O=C(c1ccc(Cn2c(=S)[nH]c3ccsc3c2=O)cc1)N1CCc2ccccc2C1
inhibition [3]: 106%
